Patent US11458135B2, “Combination of pure 5-HT6 receptor antagonists with acetylcholinesterase inhibitors” (priority 2016, dated 2022)
pKi: −log10 of the molar value. Structures can show the parent of a compound that is named as a salt.

How the values were obtained:
[1] = test system: acetylcholine levels in ventral hippocampus of male Wistar rats; assay: Acetylcholine modulation in ventral hippocampus (microdialysis), test compound alone; assay type: in vivo, rat
Source text: Male Wistar rats (240-300 g body weight) were stereotaxically implanted with a microdialysis guide cannula in ventral hippocampus (AP: −5.2 mm, ML: +5.0 mm, DV: −3.8 mm) under isoflurane anesthesia. […] The rats were allowed to recover individually for four-five days in a round bottom Plexiglas bowl with free access to feed and water.
One day prior to the microdialysis experiment, rats were connected to a dual quartz lined two-channel liquid swivel (Instech, UK) on a counter balance lever arm, which allowed unrestricted movements of the animal. […] On the day of experiment, perfusion rate was changed to 1.2 μL/min and stabilization period of atleast 2 hours was maintained. […] Dialysate samples were collected for additional period of 6 h using CMA/170 refrigerated fraction collector.
All microdialysis data were plotted as percent change from mean dialysate basal concentrations with 100% defined as the average of five predose values. The AUC was calculated by trapezoidal rule using WinNonlin® (5.0.1 version, Pharsight Corp. CA). The statistical significance between the mean AUC values of treatment group with vehicle was calculated using Dunnett's multiple comparison test. For each treatment group, the percent increase in acetylcholine levels was compared to the vehicle group using two-way analysis of variance (time and treatment), followed by Bonferroni post test. […]

[2] = Rodent pharmacokinetic study for assessment of drug interaction; settings: compound 1 3 mg/kg, p.o., donepezil 1 mg/kg, s.c.; male Wistar rats
Protocol: Male Wistar rats (260±50 grams) were used as experimental animals. Animals were housed individually in polypropylene cages and acclimatized for three days prior to study.
Blood was collected through retro orbital plexus under isoflurane anesthesia. Collected blood was transferred into a pre-labeled eppendorf tube containing 10 μL of sodium heparin as an anticoagulant. Blood samples were collected at following time points: 0.33, 0.66, 1, 1.5, 2, 4, 6, 8 and 24 hours post dose. Blood was centrifuged at 4000 rpm for 10 minutes. Plasma was separated and stored frozen at −80 ° C. until analysis. […] The test compounds were quantified in the calibration range around 0.05-100 ng/mL in plasma. Study samples were analyzed using calibration samples in the batch and quality control samples spread across the batch.
Pharmacokinetic parameters Cmax, Tmax and AUClast were calculated by non-compartmental model using Phoenix WinNonlin 6.4.0 version Software package.

[3] = target: human recombinant 5-HT2A receptor (Homo sapiens (Human), UniProt P28223); assay: Determination of Ki value at 5-HT2A receptor (radioligand binding, [3H]-Ketanserine); settings: [3H]-Ketanserine 1.75 nM, average of three independent experiments
Source text: The reaction was terminated by rapid vacuum filtration onto the glass fiber filters.

[4] = test system: acetylcholine levels in ventral hippocampus of male Wistar rats; assay: Acetylcholine modulation in ventral hippocampus (microdialysis), combination treatment; assay type: in vivo, rat; settings: s.c. alone
Source text: However, there were minor modifications in the microdialysis experiment.
After surgical recovery of 4-5 days, male Wistar rats were connected to dual quartz lined two-channel liquid swivel (Instech, UK) on a counter balance lever arm, which allowed unrestricted movements of the animal. Sixteen hours before start of study, a pre-equilibrated microdialysis probe (4 mm dialysis membrane) was inserted into the ventral hippocampus through the guide cannula. On the day of study, the probe was perfused with aCSF at a flow rate of 1.5 μL/min and a stabilization period of 2 h was maintained. […] Dialysates were stored below −50° C. prior to analysis.
All microdialysis data for acetylcholine was plotted as percent change from mean dialysate basal concentrations with 100% defined as the average of five pre-dose values. […] Statistical significance was considered at a p value less than 0.05. Incorrect probe placement was considered as criteria to reject the data from animal.

[5] = test system: theta power in dorsal hippocampus of anesthetized male Wistar rats; assay: Evoked theta modulation in dorsal hippocampus of anesthetized male Wistar rats; assay type: in vivo, rat; settings: donepezil 0.3 mg/kg, i.v. alone
Protocol: Additionally one electrode was implanted into the cerebellum which served as a reference. Hippocampal θ rhythm was evoked via a 6-s electrical stimulation train (20-160 μA, 0.3-ms pulse duration, 250 Hz) delivered to the NPO at a rate of 0.01 trains/s with a Grass S88 stimulator and PSIU6 stimulus isolation unit (Grass Medical Instruments, Quincy, Mass.). EEG was recorded at a rate of 1000 Hz using Ponemah (Version 5.2) software and stored for off-line analysis using NeuroScore™ (Version 3.0). Baseline amplitude level was achieved by using the current required to elicit θ rhythm to 50% of the maximal amplitude under control conditions.
Power in the θ rhythm frequency in the stimulation period during the 30 min baseline period was calculated and the percent changes in these measures post treatment were calculated. […] Statistical significance was considered at a p value less than 0.05.

SMILES: COc1ccc2c(c1)c(CN1CCN(C)CC1)cn2S(=O)(=O)c1ccccc1Br [Compound 1, 1-[(2-Bromophenyl)sulfonyl]-5-methoxy-3-[(4-methyl-1-piperazinyl)methyl]-1H-indole dimesylate monohydrate]
- increase in hippocampal acetylcholine levels ([1]; 3 mg/kg, p.o., ventral hippocampus, male Wistar rats): about 172%
- Area under the curve value of acetylcholine change vs vehicle treatment ([1]; compound 1 p.o., FIG. 2): significantly higher
- difference in plasma exposures administered alone or in combination [2]: No significant difference

SMILES: COc1ccc2c(c1)c(CN1CCN(C)CC1)cn2S(=O)(=O)c1ccc(F)cc1 [Compound 2, 1-[(4-Fluorophenyl)sulfonyl]-5-methoxy-3-[(4-methyl-1-piperazinyl)methyl]-1H-indole dihydrochloride]
- pKi [3]: < 5.00

SMILES: COc1cc2c(cc1OC)C(=O)C(CC1CCN(Cc3ccccc3)CC1)C2 (stereo not shown) [Donepezil]
- maximum hippocampal acetylcholine levels ([4]; donepezil 1 mg/kg): 703±134 % of basal levels
- hippocampal theta power [5]: moderate increase

SMILES: CCN(C)C(=O)Oc1cccc([C@H](C)N(C)C)c1 [rivastigmine, Rivastigmine]
- increase in hippocampal acetylcholine level ([4]; rivastigmine 0.5 mg/kg): about 3 fold
